Measurements: ChEMBL document CHEMBL1201862, “PubChem BioAssay data set” (2004)
The source made the active and inactive calls.

Key:
[1] = Luminescence Cell-Based Dose Confirmation HTS to Identify Activators of 5'UTR Stem-Loop Driven Alpha-Synuclein mRNA Translation in H4 Neuroglioblastoma Cells. [Related pubchem assays: 1829 (Project Summary), 1814 (Primary HTS)]; type: functional
[2] = Luminescence Cell-Based Dose Response HTS to Identify Activators of Luciferase Translation or Activity in H4 […] Cells. [Related pubchem assays: 1829 (Project Summary), 1814 (Primary HTS)]; type: functional
[3] = test system: H4; experiment: Luminescence Cell-Based Dose Response HTS to Identify Activators of 5'UTR Stem-Loop Driven Prion Protein mRNA Translation in H4 Neuroglioblastoma Cells. [Related pubchem assays: 1829 (Project Summary), 1814 (Primary HTS)]; type: functional; details: Homo sapiens
[4] = cells
[5] = cells; details: HEK293
[6] = test system: Streptococcus sp. 'group A'; experiment: growth inhibition of control SK(-) GAS strain, dose response, counter-screen for streptokinase expression inhibitor project, luminescence, kanamycin, BacTiterGlo, confirmation (AID 1900); type: functional, organism-based
[7] = target: Induced myeloid leukemia cell differentiation protein Mcl-1 (Homo sapiens, UniProt Q07820); type: functional
Induced myeloid leukemia cell differentiation protein Mcl-1, sequence (Q07820 whole entry): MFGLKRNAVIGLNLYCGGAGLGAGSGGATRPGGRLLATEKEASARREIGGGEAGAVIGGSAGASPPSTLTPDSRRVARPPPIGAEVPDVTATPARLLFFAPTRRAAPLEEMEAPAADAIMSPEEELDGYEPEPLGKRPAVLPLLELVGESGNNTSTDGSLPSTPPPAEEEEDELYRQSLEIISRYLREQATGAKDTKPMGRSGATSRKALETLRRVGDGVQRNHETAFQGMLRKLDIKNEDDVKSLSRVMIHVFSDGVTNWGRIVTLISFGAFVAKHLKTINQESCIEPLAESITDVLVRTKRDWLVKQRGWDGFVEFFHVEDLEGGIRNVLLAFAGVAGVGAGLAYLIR

[8] = test system: Streptococcus; experiment: Group A Streptococcus viability loss, dose response, counter-screen for streptokinase expression inhibitor project, luminescence, BacTiterGlo (AID 1915); type: functional, organism-based;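 note: potency for reduction of bacterial viability or growth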
[9] = target: Eukaryotic translation initiation factor 4E (Mus musculus, UniProt P63073); experiment: eIF4E–eIF4G protein interaction inhibitors, dose response, biochemical, TR-FRET (AID 855); type: functional;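 note: potency for disrupting eIF4E binding to eIF4GI seen as loss of FRET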
Eukaryotic translation initiation factor 4E, sequence (P63073 whole entry): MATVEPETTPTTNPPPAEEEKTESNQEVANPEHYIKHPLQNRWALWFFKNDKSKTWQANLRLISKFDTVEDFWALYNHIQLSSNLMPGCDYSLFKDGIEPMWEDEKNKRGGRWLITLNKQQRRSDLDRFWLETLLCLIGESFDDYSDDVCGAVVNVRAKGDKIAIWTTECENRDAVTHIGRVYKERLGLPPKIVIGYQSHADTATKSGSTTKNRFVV

[10] = target: Matrix metalloproteinase-14 (Homo sapiens, UniProt P50281); experiment: Dose Response confirmation of uHTS hits for a small molecule inhibitors of MT1-MMP activation in a fluorescence assay set 2.; type: functional
[11] = target: Nuclear receptor subfamily 5 group A member 2 (Homo sapiens, UniProt O00482); type: functional, cell-based;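 note: HEK293T cells transfected with LRH-1 and a StAR promoter luciferase reporter; potency for inhibitors that lower LRH-1 driven reporter light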
Nuclear receptor subfamily 5 group A member 2, sequence (O00482 whole entry): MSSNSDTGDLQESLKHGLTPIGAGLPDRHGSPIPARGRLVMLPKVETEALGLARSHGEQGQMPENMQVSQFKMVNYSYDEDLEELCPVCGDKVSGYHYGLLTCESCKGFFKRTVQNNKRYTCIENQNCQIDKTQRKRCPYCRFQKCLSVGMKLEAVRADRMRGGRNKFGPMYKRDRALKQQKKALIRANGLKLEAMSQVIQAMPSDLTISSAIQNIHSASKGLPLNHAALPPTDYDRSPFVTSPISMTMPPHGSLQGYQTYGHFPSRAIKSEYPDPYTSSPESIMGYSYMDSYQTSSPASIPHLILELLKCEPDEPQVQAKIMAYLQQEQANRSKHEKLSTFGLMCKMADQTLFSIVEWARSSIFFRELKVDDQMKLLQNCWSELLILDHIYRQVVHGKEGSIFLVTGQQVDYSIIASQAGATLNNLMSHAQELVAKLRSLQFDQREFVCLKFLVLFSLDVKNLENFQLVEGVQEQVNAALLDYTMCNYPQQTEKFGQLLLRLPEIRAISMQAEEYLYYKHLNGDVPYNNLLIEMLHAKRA

[12] = target: Steroidogenic factor 1 (Homo sapiens, UniProt Q13285); experiment: Counterscreen for inverse agonists of the liver receptor homolog-1 (LRH-1; NR5A2): Luminescence-based cell-based high throughput dose response assay to identify inverse agonists of the Steroidogenic Factor 1 Nuclear Receptor (SF1; NR5A1).; type: functional
Steroidogenic factor 1, sequence (Q13285 whole entry): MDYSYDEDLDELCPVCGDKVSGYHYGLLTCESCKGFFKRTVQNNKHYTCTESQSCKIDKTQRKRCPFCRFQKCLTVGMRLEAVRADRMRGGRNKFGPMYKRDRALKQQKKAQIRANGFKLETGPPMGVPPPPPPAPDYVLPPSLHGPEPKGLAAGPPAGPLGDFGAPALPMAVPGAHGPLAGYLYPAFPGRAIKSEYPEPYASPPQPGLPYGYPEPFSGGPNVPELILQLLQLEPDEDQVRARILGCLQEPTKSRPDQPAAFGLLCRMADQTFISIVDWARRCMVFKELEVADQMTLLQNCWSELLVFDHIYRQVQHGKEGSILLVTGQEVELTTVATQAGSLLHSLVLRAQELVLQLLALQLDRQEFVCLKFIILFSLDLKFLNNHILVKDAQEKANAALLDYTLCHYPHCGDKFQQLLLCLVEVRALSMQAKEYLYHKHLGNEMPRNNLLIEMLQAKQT

[13] = StAR promoter reporter inhibition counter-screen, dose response, counter-screen for LRH-1 inverse agonist project, cell-based, luminescence, luciferase reporter (AID 651969); type: functional
[14] = AlphaScreen signal interference by compounds, dose response, artefact control for ARNT/TACC3 disruptor project, biochemical, dual-tagged ARNT, dry powder (AID 720564)
[15] = test system: Vero; experiment: cells; type: functional, cell-based; details: Chlorocebus sabaeus
[16] = test system: Vero; experiment: cells; type: functional; details: Chlorocebus sabaeus
[17] = target: T1, Corticotropin-releasing factor receptor 2/Corticotropin-releasing factor-binding protein (Homo sapiens, UniProt P24387+Q13324); experiment: activators of CRF receptor 2 with binding protein – uHTS hits, confirmation (AID 602473); type: functional; details: read-out: EC50_Mean
T1 sequence (Q13324 whole entry): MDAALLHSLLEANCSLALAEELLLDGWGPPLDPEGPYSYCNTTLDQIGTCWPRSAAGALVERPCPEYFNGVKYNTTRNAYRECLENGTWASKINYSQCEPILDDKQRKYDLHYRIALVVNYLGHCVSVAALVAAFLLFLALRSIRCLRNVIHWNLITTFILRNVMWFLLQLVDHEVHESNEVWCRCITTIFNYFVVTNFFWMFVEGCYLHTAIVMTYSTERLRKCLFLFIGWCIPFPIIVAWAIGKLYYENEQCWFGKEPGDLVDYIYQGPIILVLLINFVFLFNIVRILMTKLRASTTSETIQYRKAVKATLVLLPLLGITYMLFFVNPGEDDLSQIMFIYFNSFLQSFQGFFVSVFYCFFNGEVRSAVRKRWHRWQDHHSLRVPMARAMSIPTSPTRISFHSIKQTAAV
T1 sequence (P24387 whole entry): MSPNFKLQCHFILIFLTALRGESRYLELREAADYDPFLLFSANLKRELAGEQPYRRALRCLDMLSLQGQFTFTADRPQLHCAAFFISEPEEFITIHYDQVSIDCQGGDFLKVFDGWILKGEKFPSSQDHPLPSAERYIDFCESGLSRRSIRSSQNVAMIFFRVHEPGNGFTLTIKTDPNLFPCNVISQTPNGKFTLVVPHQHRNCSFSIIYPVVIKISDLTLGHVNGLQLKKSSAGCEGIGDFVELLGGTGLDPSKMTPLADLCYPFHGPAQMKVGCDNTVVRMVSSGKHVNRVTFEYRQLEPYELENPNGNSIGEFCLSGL

[18] = human group III sPLA2 inhibitors, dose response, biochemical, QFRET, IC50 (AID 743457);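 note: green fluorescence rise as the enzyme cleaves BODIPY PC-A2 in liposomes; potency for inhibition of the enzyme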
[19] = test system: A549; experiment: A549 cell toxicity, dose response, cytotoxicity control, plate reader, cherry-pick samples (AID 687028); type: functional, cell-based; details: Homo sapiens
[20] = target: Voltage-gated inwardly rectifying potassium channel KCNH2 (Homo sapiens, UniProt Q12809); experiment: hERG channel inhibition in selectivity testing, SAR follow-up, selectivity assay for TASK1 inhibitor project, FluxOR thallium flux, concentration-response, CHO cells (AID 652194); type: functional, cell-based
Voltage-gated inwardly rectifying potassium channel KCNH2, sequence (Q12809 whole entry): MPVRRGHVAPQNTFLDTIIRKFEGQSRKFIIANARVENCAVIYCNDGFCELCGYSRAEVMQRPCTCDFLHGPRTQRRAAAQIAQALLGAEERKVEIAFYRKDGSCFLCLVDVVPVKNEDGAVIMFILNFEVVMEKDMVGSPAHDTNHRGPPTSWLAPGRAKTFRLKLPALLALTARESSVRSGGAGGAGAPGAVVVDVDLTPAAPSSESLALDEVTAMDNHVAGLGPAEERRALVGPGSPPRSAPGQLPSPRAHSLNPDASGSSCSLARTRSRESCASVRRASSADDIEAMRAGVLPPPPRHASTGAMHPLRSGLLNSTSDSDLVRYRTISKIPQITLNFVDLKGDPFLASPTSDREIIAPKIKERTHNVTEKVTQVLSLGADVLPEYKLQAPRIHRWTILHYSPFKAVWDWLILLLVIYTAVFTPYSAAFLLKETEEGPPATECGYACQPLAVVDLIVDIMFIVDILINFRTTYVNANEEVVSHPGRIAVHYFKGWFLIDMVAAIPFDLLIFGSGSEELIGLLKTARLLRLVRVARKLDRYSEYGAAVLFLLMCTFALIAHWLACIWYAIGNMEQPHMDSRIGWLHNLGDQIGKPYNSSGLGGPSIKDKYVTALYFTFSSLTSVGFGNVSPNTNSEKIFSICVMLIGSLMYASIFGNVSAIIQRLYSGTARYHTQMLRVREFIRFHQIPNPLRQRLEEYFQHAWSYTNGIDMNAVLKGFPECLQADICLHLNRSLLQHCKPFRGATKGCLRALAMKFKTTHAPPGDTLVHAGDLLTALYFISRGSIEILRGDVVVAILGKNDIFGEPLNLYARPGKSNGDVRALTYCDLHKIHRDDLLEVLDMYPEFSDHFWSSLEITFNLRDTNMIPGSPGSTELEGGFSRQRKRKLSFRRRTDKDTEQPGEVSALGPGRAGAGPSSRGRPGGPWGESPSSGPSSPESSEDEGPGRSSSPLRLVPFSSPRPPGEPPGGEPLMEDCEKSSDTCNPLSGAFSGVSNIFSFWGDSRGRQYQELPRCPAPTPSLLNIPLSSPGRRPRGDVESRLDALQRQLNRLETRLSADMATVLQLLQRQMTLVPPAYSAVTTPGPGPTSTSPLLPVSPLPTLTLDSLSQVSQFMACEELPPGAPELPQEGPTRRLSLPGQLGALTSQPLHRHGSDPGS

[21] = target: Potassium channel subfamily K member 3 (Homo sapiens, UniProt O14649); experiment: TASK1 (KCNK3) potassium channel inhibitors, SAR follow-up, CHO cells, FluxOR thallium flux (AID 652212); type: functional
Potassium channel subfamily K member 3, sequence (O14649 whole entry): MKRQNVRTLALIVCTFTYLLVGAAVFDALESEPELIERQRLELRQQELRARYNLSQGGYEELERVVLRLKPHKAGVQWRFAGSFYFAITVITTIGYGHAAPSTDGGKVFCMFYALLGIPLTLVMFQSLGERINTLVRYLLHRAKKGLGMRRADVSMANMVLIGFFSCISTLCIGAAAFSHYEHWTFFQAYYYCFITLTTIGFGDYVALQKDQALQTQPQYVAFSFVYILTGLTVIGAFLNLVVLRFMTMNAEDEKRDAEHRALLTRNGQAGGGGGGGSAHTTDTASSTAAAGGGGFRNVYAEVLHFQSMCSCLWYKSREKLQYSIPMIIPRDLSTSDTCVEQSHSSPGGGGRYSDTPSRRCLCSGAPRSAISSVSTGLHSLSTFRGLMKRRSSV

CC1CCN(S(=O)(=O)N2CCC(C(=O)NC3CCCC3)CC2)CC1
EC50 [1]: > 120 µM (not active)
EC50 [2]: > 120 µM (not active)
EC50 [3]: > 120 µM (not active)
AC50 [4]: > 70 µM (inactive)
AC50 [5]: > 52 µM (inactive)

COc1ccc2nc(N3C(=O)C(c4c(O)[nH]c5ccccc45)=NC3=S)sc2c1
EC50 [1]: > 120 µM (not active)
EC50 [2]: 34.5 µM (active)
EC50 [6]: 0.744 µM (active)
EC50 [3]: 101 µM (active)
IC50 [7]: > 54 µM (active)
EC50 [8]: 2.41 µM (active)
IC50 [9]: > 64 µM (inactive)
IC50 [10]: 37.6 µM (inactive)

COC(=O)c1ccc(NC(=O)CSc2ccc(-c3ccccn3)nn2)cc1
IC50 [11]: 35.9 µM (inactive)
IC50 [12]: 35.9 µM (inactive)
IC50 [13]: 35.9 µM (inactive)
AC50 [14]: 115 µM (active)

Cc1ccc(C(=O)NNC(=S)NC(=O)c2ccco2)cc1
EC50 [6]: 1.87 µM (active)
EC50 [8]: 8.89 µM (active)
IC50 [15]: 23.6 µM (active)
CC50 [16]: > 25 µM (active)
EC50 [17]: 7.87 µM (active)
IC50 [18]: > 122 µM (inactive)

COc1ccc(-c2ccc3c(c2)[C@@H]2[C@@H](CCN2C(=O)C2CCOCC2)[C@@H](CO)N3C)cc1
AC50 [19]: 27.8 µM (active)

Cc1cccc(C(=O)Nc2cccc(NC(=O)c3ccc(C(C)(C)C)cc3)c2)c1
IC50 [20]: 32.8 µM (active)
IC50 [21]: 0.184 µM (active)
